Test results from publication PMC5007552, “The hVps34‐SGK3 pathway alleviates sustained PI3K/Akt inhibition by stimulating mTORC1 and tumour growth” (The EMBO Journal, 2016).
Where “and” joins values, the source holds several entries; their conditions need not be identical. Equal values may be shown once.

System: ZR-75-1 cells
Test: NanoString human kinome mRNA quantification
Type: cell-based
Excerpt: Human mRNAs were hybridised to NanoString human kinome and control code sets, then subjected to quantification using NanoString software. […] To permit data compaction, and simple kinome‐wide comparisons, the fold changes are log2 transformed. […] Cell pellets were resuspended at a concentration of ~6,500 cells/μl in RLT buffer (Qiagen). […] For total copy numbers, triplicate normalised count values were averaged, and to calculate fold induction, means were divided by triplicate mean values from matched DMSO controls. P‐values were calculated using unpaired t‐test (GraphPad Prism software) by employing treated and control count data for each kinase mRNA.

## NC1(c2ccc(-c3nc4ccn5c(=O)[nH]nc5c4cc3-c3ccccc3)cc2)CCC1 [MK-2206]
RYK mRNA, single replicates
  RYK normalised counts: 1148.59 and 1139.68 and 1120.05
SBK1 mRNA, average of 3 replicates
  SBK1 normalised counts, average: 361.503
SBK1 mRNA, single replicates
  SBK1 normalised counts: 371.43 and 336.09 and 376.99
SBK2 mRNA, average of 3 replicates
  SBK2 normalised counts, average: 1.323
SBK2 mRNA, single replicates
  SBK2 normalised counts: 1.48 and 1 and 1.49
SCYL1 mRNA, average of 3 replicates
  SCYL1 normalised counts, average: 556.557
SCYL1 mRNA, single replicates
  SCYL1 normalised counts: 560.49 and 556.75 and 552.43
SCYL2 mRNA, average of 3 replicates
  SCYL2 normalised counts, average: 1373.8
SCYL2 mRNA, single replicates
  SCYL2 normalised counts: 1302.21 and 1441.13 and 1378.05
SCYL3 mRNA, average of 3 replicates
  SCYL3 normalised counts, average: 629.833
SCYL3 mRNA, single replicates
  SCYL3 normalised counts: 586.85 and 664.48 and 638.17
SGK1 mRNA, average of 3 replicates
  SGK1 normalised counts, average: 34.7533
SGK1 mRNA, single replicates
  SGK1 normalised counts: 45.11 and 34.64 and 24.51
SGK2 mRNA, average of 3 replicates
  SGK2 normalised counts, average: 5.517
SGK2 mRNA, single replicates
  SGK2 normalised counts: 6.93 and 3.37 and 6.25
SGK3 mRNA, average of 3 replicates
  SGK3 normalised counts, average: 345.983
SGK3 mRNA, single replicates
  SGK3 normalised counts: 345.97 and 349.13 and 342.85
SGK110 mRNA, average of 3 replicates
  SGK110 normalised counts, average: 1
SGK110 mRNA, single replicates
  SGK110 normalised counts: 1
SGK223 mRNA, average of 3 replicates
  SGK223 normalised counts, average: 114.123
SGK223 mRNA, single replicates
  SGK223 normalised counts: 115.1 and 115.43 and 111.84
SGK494 mRNA, single replicates
  SGK494 normalised counts: 270.07 and 276.17
SIK1 mRNA, average of 3 replicates
  SIK1 normalised counts, average: 97.7933
SIK1 mRNA, single replicates
  SIK1 normalised counts: 92.37 and 96.32 and 104.69
SIK2 mRNA, average of 3 replicates
  SIK2 normalised counts, average: 489.35
SIK2 mRNA, single replicates
  SIK2 normalised counts: 465.05 and 503.76 and 499.24
SIK3 mRNA, average of 3 replicates
  SIK3 normalised counts, average: 191.663
SIK3 mRNA, single replicates
  SIK3 normalised counts: 213.27 and 183.2 and 178.52
SLK mRNA, average of 3 replicates
  SLK normalised counts, average: 781.283
SLK mRNA, single replicates
  SLK normalised counts: 777.73 and 819.98 and 746.14
SNRK mRNA, single replicates
  SNRK normalised counts: 215.99 and 274.58
SPEG mRNA, average of 3 replicates
  SPEG normalised counts, average: 35.4833
SPEG mRNA, single replicates
  SPEG normalised counts: 26.93 and 40.72 and 38.8
SRC mRNA, average of 3 replicates
  SRC normalised counts, average: 1093.13
SRC mRNA, single replicates
  SRC normalised counts: 1115.87 and 1045.86 and 1117.67
SRMS mRNA, average of 3 replicates
  SRMS normalised counts, average: 3.94
SRMS mRNA, single replicates
  SRMS normalised counts: 1.48 and 2.5 and 7.84
SRPK1 mRNA, average of 3 replicates
  SRPK1 normalised counts, average: 1401.66
SRPK1 mRNA, single replicates
  SRPK1 normalised counts: 1439.46 and 1380.32 and 1385.2
SRPK3 mRNA, average of 3 replicates
  SRPK3 normalised counts, average: 7.937
SRPK3 mRNA, single replicates
  SRPK3 normalised counts: 8.75 and 11.19 and 3.87
STK3 mRNA, average of 3 replicates
  STK3 normalised counts, average: 371.33
STK3 mRNA, single replicates
  STK3 normalised counts: 336.89 and 406.46 and 370.64
STK10 mRNA, average of 3 replicates
  STK10 normalised counts, average: 433.017
STK10 mRNA, single replicates
  STK10 normalised counts: 449.6 and 416.89 and 432.56
STK11 mRNA, average of 3 replicates
  STK11 normalised counts, average: 800.127
STK11 mRNA, single replicates
  STK11 normalised counts: 804.09 and 773.94 and 822.35
STK16 mRNA, average of 3 replicates
  STK16 normalised counts, average: 424.973
STK16 mRNA, single replicates
  STK16 normalised counts: 430.51 and 422.97 and 421.44
STK17A mRNA, average of 3 replicates
  STK17A normalised counts, average: 614.85
STK17A mRNA, single replicates
  STK17A normalised counts: 623.21 and 605.4 and 615.94
STK17B mRNA, average of 3 replicates
  STK17B normalised counts, average: 149.18
STK17B mRNA, single replicates
  STK17B normalised counts: 155.09 and 144.1 and 148.35
STK19 mRNA, average of 3 replicates
  STK19 normalised counts, average: 156.807
STK19 mRNA, single replicates
  STK19 normalised counts: 145.09 and 157.13 and 168.2
STK24 mRNA, single replicates
  STK24 normalised counts: 2291.16
STK25 mRNA, average of 3 replicates
  STK25 normalised counts, average: 893.797
STK25 mRNA, single replicates
  STK25 normalised counts: 868.63 and 899.91 and 912.85
STK31 mRNA, average of 3 replicates
  STK31 normalised counts, average: 2.42
STK31 mRNA, single replicates
  STK31 normalised counts: 2.39 and 1 and 3.87
STK32A mRNA, average of 3 replicates
  STK32A normalised counts, average: 1.637
STK32A mRNA, single replicates
  STK32A normalised counts: 1 and 1.63 and 2.28
STK32B mRNA, average of 3 replicates
  STK32B normalised counts, average: 1.427
STK32B mRNA, single replicates
  STK32B normalised counts: 1 (2×) and 2.28
STK32C mRNA, average of 3 replicates
  STK32C normalised counts, average: 205.643
STK32C mRNA, single replicates
  STK32C normalised counts: 188.41 and 219.8
STK33 mRNA, average of 3 replicates
  STK33 normalised counts, average: 1.163
STK33 mRNA, single replicates
  STK33 normalised counts: 1 (2×) and 1.49
STK35 mRNA, average of 3 replicates
  STK35 normalised counts, average: 342.25
STK35 mRNA, single replicates
  STK35 normalised counts: 336.89 and 343.04 and 346.82
STK38L mRNA, average of 3 replicates
  STK38L normalised counts, average: 664.543
STK38L mRNA, single replicates
  STK38L normalised counts: 674.11 and 657.53 and 661.99
STK38 mRNA, average of 3 replicates
  STK38 normalised counts, average: 732.567
STK38 mRNA, single replicates
  STK38 normalised counts: 697.74 and 733.98 and 765.98
STK39 mRNA, average of 3 replicates
  STK39 normalised counts, average: 817.837
STK39 mRNA, single replicates
  STK39 normalised counts: 763.19 and 842.57 and 847.75
VRK3 mRNA
  Normalised counts (single replicate): 720.47 and 725.29 and 752.49
WEE2 mRNA
  Normalised counts (single replicate): 1.48 and 1.63 and 1.49
WNK1 mRNA
  Normalised counts (single replicate): 3425.55 and 3529.59 and 3400.03
WNK2 mRNA
  Normalised counts (single replicate): 345.97 and 335.23 and 337.29
WNK3 mRNA
  Normalised counts (single replicate): 30.56 and 30.3 and 37.21
WNK4 mRNA
  Normalised counts (single replicate): 5.11 and 1 and 4.66
YES1 mRNA
  Normalised counts (single replicate): 2809.27 and 2957.96 and 2943.56
YSK4 mRNA
  Normalised counts (single replicate): 1 (2×) and 1.49
ZAK mRNA
  Normalised counts (single replicate): 35.11 and 50.28 and 49.91
ZAP70 mRNA
  Normalised counts (single replicate): 1 (2×) and 1.63
ZR-75-1, DMSO vehicle 29th
  rank of SGK3 mRNA among AGC kinases: 12
